Test [1] concerns Pseudomonas aeruginosa. As to the kind of experiment: Antibacterial activity against Pseudomonas aeruginosa PAO1 assessed as bacterial growth inhibition incubated for 24 hrs by micro-broth dilution method. Format: functional. A general note: In broth dilution the organism is exposed to a series of concentrations in liquid medium.
Test [2] deals with Pseudomonas aeruginosa. As to the kind of experiment: Downregulation of lasI mRNA expression level in Pseudomonas aeruginosa PAO1 at 200 uM by RT-PCR analysis relative to control. Format: functional.
Test [3] deals with Pseudomonas aeruginosa. In words: Antibiofilm activity against Pseudomonas aeruginosa PAO1. Format: functional, organism-based.
The subject of test [4] is Pseudomonas aeruginosa. As to the kind of experiment: Downregulation of lasR mRNA expression level in Pseudomonas aeruginosa PAO1 at 200 uM by RT-PCR analysis relative to control. Format: functional.
Test [5] has as its system Pseudomonas aeruginosa. In words: Downregulation of rhlI mRNA expression level in Pseudomonas aeruginosa PAO1 at 200 uM by RT-PCR analysis relative to control. Format: functional.
The test system of test [6] is Pseudomonas aeruginosa. In words: Downregulation of rhlR mRNA expression level in Pseudomonas aeruginosa PAO1 at 200 uM by RT-PCR analysis relative to control. Format: functional.
Test [7] relates to Pseudomonas aeruginosa. As to the kind of experiment: Antimicrobial activity against Pseudomonas aeruginosa PAO1 assessed as reduction in bacterial growth measured for 24 hrs by broth micro-dilution method. Format: functional.
Test [8] is described as follows: Inhibition of quorum sensing system in Pseudomonas aeruginosa PAO1-pqsA assessed as reduction in fluorescence intensity measured for 12 hrs by GFP reporter strain assay.
For test [9], the system named is Pseudomonas aeruginosa. In words: Antivirulence activity against Pseudomonas aeruginosa PAO1 assessed as inhibition of pyocyanin production. Format: functional, organism-based.
Test [10] concerns Pseudomonas aeruginosa. As to the kind of experiment: Antivirulence activity against Pseudomonas aeruginosa assessed as reduction in elastase level at 100 uM incubated for 24 hrs by elastin-Congo red staining based analysis relative to control. Also noted: scale not given: the % may be the effect or the level left. Format: functional.
For test [11], the system named is Pseudomonas aeruginosa. In words: Downregulation of rhlR mRNA expression in Pseudomonas aeruginosa PAO1 incubated for 4 hrs by RT-qPCR analysis. The conditions noted are these: PAO1, 4 h. Format: functional, organism-based. In general terms: Real-time PCR tracks product formation cycle by cycle.
Test [12] has as its system Pseudomonas aeruginosa. As to the kind of experiment: Downregulation of pqsR mRNA expression in Pseudomonas aeruginosa PAO1 incubated for 4 hrs by RT-qPCR analysis. Format: functional, organism-based. The conditions noted are these: PAO1, 4 h.
Test [13] concerns Pseudomonas aeruginosa. As to the kind of experiment: Downregulation of lasB mRNA expression in Pseudomonas aeruginosa PAO1 incubated for 4 hrs by RT-qPCR analysis. Format: functional, organism-based. The conditions noted are these: PAO1, 4 h.
For test [14], the system named is Pseudomonas aeruginosa. As to the kind of experiment: Antimicrobial activity against Pseudomonas aeruginosa assessed as reduction in microbial growth. Format: functional, organism-based.
The test system of test [15] is Pseudomonas aeruginosa. In words: Anti-virulence activity against Pseudomonas aeruginosa assessed as reduction in protease production level at 100 uM incubated for 24 hrs by absorbance based assay relative to control. Format: functional. Further details: scale not given: the % may be the effect or the level left.
Test [16] has as its system Pseudomonas aeruginosa. As to the kind of experiment: Downregulation of rhlI mRNA expression in Pseudomonas aeruginosa PAO1 incubated for 4 hrs by RT-qPCR analysis. Format: functional, organism-based. The conditions noted are these: PAO1, 4 h.
Test [17] has as its system Pseudomonas aeruginosa. In words: Downregulation of lasA mRNA expression in Pseudomonas aeruginosa PAO1 incubated for 4 hrs by RT-qPCR analysis. Format: functional, organism-based. The conditions noted are these: PAO1, 4 h.
For test [18], the system named is Pseudomonas aeruginosa. As to the kind of experiment: Downregulation of lasR mRNA expression in Pseudomonas aeruginosa PAO1 incubated for 4 hrs by RT-qPCR analysis. Format: functional, organism-based. As to conditions: PAO1, 4 h.
In test [19] the test system is Pseudomonas aeruginosa. In words: Antibiofilm activity against Pseudomonas aeruginosa assessed as reduction in biofilm formation incubated for 24 hrs relative to control. Format: functional. Further details: scale not given: the % may be the effect or the level left.
Test [20] relates to Pseudomonas aeruginosa. As to the kind of experiment: Anti-virulence activity against Pseudomonas aeruginosa assessed as reduction in pyocyanin production level at 100 uM incubated for 24 hrs by absorbance based assay relative to control. Further details: scale not given: the % may be the effect or the level left. Format: functional.

In brackets after ≈: the same amount, converted by molar mass.

With `O=c1c(O)c(-c2ccc(O)c(O)c2)oc2cc(O)cc(O)c12` [QUERCETIN], the MIC (as a rule, the smallest concentration in the dilution series that meets the test's criterion for growth inhibition) in the test on Pseudomonas aeruginosa [1] worked out at 1 µM (≈ 0.302 µg/mL). Moreover, the Activity with Pseudomonas aeruginosa [2], with Pseudomonas aeruginosa [4], in the test on Pseudomonas aeruginosa [5] and in the test on Pseudomonas aeruginosa [6] was 85% throughout. Further, the IC50 (as a rule, the concentration needed to halve the response being measured) with Pseudomonas aeruginosa [3] was 100 µM.
Turning to `Fc1ccc(-c2nn(-c3ccc(Cl)cc3)cc2-c2nc(-c3ccccc3)c(-c3ccccc3)[nH]2)c(Br)c1`, the MIC in the test on Pseudomonas aeruginosa [7] was determined as 63 µg/mL (≈ 111 µM).
On to `CC(C)=CCC/C(C)=C/CC/C(C)=C/CO` [FARNESOL], for which the figures for the 50% inhibitory concentration (IC50) (in test [8]; in the test on Pseudomonas aeruginosa [9]) were 0.14 µg/mL (≈ 0.63 µM) and 1.11 µg/mL (≈ 4.99 µM), respectively.
For `CCOP(=O)(NCCCCOc1cc(O)c2c(=O)cc(-c3ccccc3)oc2c1)OCC`, the Activity in the test on Pseudomonas aeruginosa [10] is 42.2%; with Pseudomonas aeruginosa [15], 18.8%; in the test on Pseudomonas aeruginosa [19] it was 78%; in the test on Pseudomonas aeruginosa [20] it was 63.8%. For the same compound, the half-maximal inhibitory concentration (IC50) in the test with Pseudomonas aeruginosa [11], in the test on Pseudomonas aeruginosa [12], in the test with Pseudomonas aeruginosa [13], in the test with Pseudomonas aeruginosa [14], with Pseudomonas aeruginosa [16] and in the test with Pseudomonas aeruginosa [17] was 100 µM throughout. The IC50 in the test on Pseudomonas aeruginosa [18] was 100 µM.

Source of the values: ChEMBL document CHEMBL6153025, “Multidrug-resistant bacteria quorum-sensing inhibitors: A particular focus on Pseudomonasaeruginosa” (Eur J Med Chem, 2025).
